Experimental data from patent publication US20230339835A1, “2,3,5-TRIMETHYL-6-NONYLCYCLOHEXA-2,5-DIENE-1,4-DIONE FOR SUPPRESSING AND TREATING ALPHA-SYNUCLEINOPATHIES, TAUOPATHIES, AND OTHER DISORDERS” (PTC THERAPEUTICS, INC., priority 2018, published 2023).

What was measured:
[1] = tested on: PD patient fibroblasts (ND29542); experiment: Rescue of PD patient fibroblasts from BSO plus iron-induced oxidative stress; type: cell-based, human; conditions: BSO (125 μM) plus iron (125 μM); for Max Rescue (@ 500 nM): 500 nM compound, unit assumed; for EC50: Homo sapiens, Fibroblast, concentration at which 50% maximal rescue of cell viability was observed
Experimental: An initial screen was performed to identify the effectiveness of compounds for the amelioration of PD and AD. Test samples and solvent controls were tested for their ability to rescue PD and AD fibroblasts stressed by addition of L-buthionine-(S,R)-sulfoximine (BSO, a specific inhibitor of GSH synthetase) plus iron (e.g. iron citrate), in a similar manner as that described in Jauslin et al., Hum. Mol. Genet. 11(24):3055 (2002), Jauslin et al., FASEB J. 17:1972-4 (2003), and International Patent Application WO 2004/003565. This specific BSO-mediated cell death was prevented or ameliorated by administration of compounds described herein.
The AD experiments were performed as follows. PD experiments were performed in a similar manner; certain specific conditions are noted below in Table 1A.
MEM (a medium enriched in amino acids and vitamins) and Medium 199 (M199) with Earle's Balanced Salts (EBS), without phenol red, were purchased from Invitrogen. Fetal Calf Serum was obtained from Corning. Basic fibroblast growth factor (bFGF) and epidermal growth factor (EGF) were purchased from PeproTech. Penicillin-streptomycin-glutamine mix, L-buthionine (S,R)-sulfoximine, iron citrate, and insulin from bovine pancreas were purchased from Sigma. Calcein AM was purchased from Anaspec. Cell Culture Medium was prepared by combining 450 mL MEM, 50 mL Fetal Calf Serum, 100 U/mL penicillin, and 100 microgram/mL streptomycin. Assay medium was prepared by combining 125 mL M199, 50 mL Fetal Calf Serum, 100 U/mL penicillin, 100 microgram/mL streptomycin, 2 mM glutamine, 10 microgram/mL insulin, 10 ng/mL EGF, and 10 ng/mL bFGF; MEM was added to make the volume up to 500 mL. 10 mM BSO and 10 mM iron citrate solutions were prepared in water with subsequent filter-sterilization and stored at −20° C.
The test samples were supplied in 1.5 mL glass vials or polypropylene vials. The compounds were diluted with DMSO, to result in a 1 mM stock solution. Once dissolved, they were stored at −20° C.
A culture of AD or PD patient-derived fibroblasts was started from a vial with approximately 500,000 cells stored in liquid nitrogen. Cells were propagated in Cell Culture Medium, with subcultivation every third day by trypsinization at a ratio of 1:3. Once confluent, fibroblasts were harvested by trypsinization, resuspended in Assay Medium, and seeded at a final cell density of 2,500 cells/0.1 mL per well of a standard 96-well tissue culture plate. […]
100 microliters of Calcein AM (1 microM) in PBS+Ca+Mg was then added to each well. […] After that time fluorescence (excitation/emission wavelengths of 485 nm and 525 nm, respectively) was read on a Spectramax fluorescence reader. Data were analyzed using standard four-parameter curve fit algorithms (XLFit or Prism) to determine the EC50 concentration for each compound.

[2] = tested on: N27 rat dopaminergic cells overexpressing a truncated human αSynuclein-GFP fusion protein; experiment: Inhibition of RSL3-induced αSynuclein aggregation in N27 cells; type: cell-based; conditions: 60 nM RSL3, 70 nM compound, 24 hr; for inhibition of RSL3-induced αSynuclein aggregation: vs RSL3 only (Dunnett's test)
Experimental: N27 rat dopaminergic cells (purchased from EMD Millipore, SCC048) were transformed to stably overexpress truncated α-Synuclein fused with green fluorescent protein (GFP) with a plasmid construct obtained from Origene (RG221446). Cells were maintained in selection media which consisted of RPMI 1640 media supplemented with 10% (v/v) fetal bovine serum (Millipore, ES-009-B), 1% (v/v) Pencillin-Streptomycin (Gibco, 15140-122), 1% (v/v) L-Glutamine (Gibco, 25030-081) and 500 μg/mL of G418 (Gibco, 10131-027).
N27 rat dopaminergic cells overexpressing a truncated (112 amino acid) human αSynuclein-GFP fusion protein, as described above, were maintained in normal culture conditions as described above. The day before the experiment, cells were plated in 96 well optical bottom, black walled plates at 3,000 cells/well, and maintained at 37° C. for 24 hr. The experiment was initiated by co-treating cells with (1S,3R)-methyl 2-(2-chloroacetyl)-1-(4-(methoxycarbonyl)phenyl)-2,3,4,9-tetrahydro-1H-pyrido[3,4-b]indole-3-carboxylate (1S,3R-RSL3, described by Yang et al., Cell 156:317-331 (2014)) (60 nM) and 70 nM compounds (2,3,5-trimethyl-6-nonylcyclohexa-2,5-diene-1,4-dione (C9), 2,3,5-trimethyl-6-octylcyclohexa-2,5-diene-1,4-dione (C8), or 2,3,5-trimethyl-6-heptylcyclohexa-2,5-diene-1,4-dione (C7)) using a D300e compound printer (Tecan), and placed back in the incubator at 37° C. for 24 hr. Cells were fixed with 4% paraformaldehyde for 15 minutes at room temperature, washed 3 times with Dulbecco's phosphate-buffered saline (DPBS) buffer, and then incubated at room temperature for 48 hr with 1% Triton-X 100 solution (in DPBS) to enable selective labeling of aggregated αSynuclein. Cells were then washed and standard immunocytochemistry (ICC) methods were employed to label total αSynuclein (mouse anti-αSynuclein, 1:250, BD Biosciences). Cells were incubated with primary antibody overnight at 4° C. and then washed with DPBS 3 times the following day. Cells were then incubated at room temperature with a fluorescently conjugated secondary antibody (goat anti-mouse Alexa 647, Invitrogen) for 2 hr at room temperature. 10 nM Hoechst was also added to label nuclei, and cells were imaged on a high-content imaging platform (ThermoFisher, HSC Cellomics Arrayscan) to quantify total aggregated αSynuclein (see FIG. 3A).
Statistical analysis of samples was performed via ordinary one-way ANOVA analysis with Dunnett's multiple comparisons test, comparing RSL3 only-treated vs. RSL3 plus compound-treated cells.

SMILES | Max Rescue (@ 500 nM) [1] [%] | EC50 [1] [nM] | inhibition of RSL3-induced αSynuclein aggregation [2] | level of aggregation inhibition over C8 [2]
CCCCCCCCC1=C(C)C(=O)C(C)=C(C)C1=O [Compound C8, 2,3,5-trimethyl-6-octylcyclohexa-2,5-diene-1,4-dione, reference compound] | 73 | > 500 | significant inhibition | –
CCCCCCCCCC1=C(C)C(=O)C(C)=C(C)C1=O [Compound C9, 2,3,5-trimethyl-6-nonylcyclohexa-2,5-diene-1,4-dione] | 103 | 84 | significant inhibition | approximately 5.45 fold
